This note sets out measurements from ChEMBL document CHEMBL1150523, “Synthesis of 1-(2-Deoxy-2-C-fluoromethyl--D-arabinofuranosyl)cytosine as a potential antineoplastic agent” (Bioorg Med Chem Lett, 1994).

Holding throughout (format): functional, cell-based
In one assay the test system is A-375. The assay can be described thus: Inhibitory concentration against melanoma A-375 cell line for cytotoxicity was determined. Conditions: Homo sapiens.
Another assay has as its system COLO 320DM. Description: Inhibitory concentration against colon adenocarcinoma COLO 320DM cell line for cytotoxicity was determined. Conditions: Homo sapiens.
The next assay relates to CCRF-HSB-2. Description: Inhibitory concentration against human T-cell line CCRF-HSB-2 for cytotoxicity was determined.
The test system of the next assay is KB. Description: Inhibitory concentration against solid tumor KB cell line for cytotoxicity was determined. Conditions: Homo sapiens.
The subject of assay [1] is KATO III stomach cancer cell line. Description: Inhibitory concentration against stomach adenocarcinoma KATO-III cell line for cytotoxicity was determined. Conditions: Homo sapiens.
The test system of the next assay is PC-8. Description: Inhibitory concentration against lung adenocarcinoma PC-8 cell line for cytotoxicity was determined. Conditions: Homo sapiens.

Molecules are shown by their SMILES. Values after ≈ are worked out from the molar mass of the structure shown.

Consider `Nc1ccn([C@@H]2O[C@H](CO)C(O)C2CF)c(=O)n1` (single isomer, unassigned), for which the IC50 in the assay on A-375 was 1.6 µg/mL (≈ 6.17 µM); in the assay with COLO 320DM it was 1.6 µg/mL (≈ 6.17 µM); with CCRF-HSB-2 it was 0.03 µg/mL (≈ 0.116 µM); in the assay on KB, 4.47 µg/mL (≈ 17.2 µM); in assay [1], 11 µg/mL (≈ 42.4 µM); in the assay with PC-8, 26 µg/mL (≈ 100 µM).
